Values of other authors as cited in patent US20140127291A1, “EXTENDED RELEASE ACETAMINOPHEN LIQUID PHARMACEUTICAL COMPOSITIONS” (MAYNE PHARMA INTERNATIONAL PTY LTD, priority 2011, published 2014).

Key:
[1] = in vivo

In the case of `CC(=O)Nc1ccc(O)cc1` [acetaminophen], the half life [1] is listed as 1 to 4 h and the “saturation concentration in water” value is listed as “about 14 mg/ml”.
